For one experiment, the system named is S. aureus ATCC 29213. Description: NCCLS broth microdilution MIC. The following applies: A = S. aureus ATCC 29213. The experiment is classed as cell-based, Staphylococcus aureus. A general note: In broth dilution the organism is exposed to a series of concentrations in liquid medium.
A further experiment has as its system E. faecalis ATCC 29212. Description: NCCLS broth microdilution MIC. It is filed as cell-based, Enterococcus faecalis. The following applies: B = E. faecalis ATCC 29212.
For a further experiment, the system named is B. cereus ATCC 11778. Description: NCCLS broth microdilution MIC. The experiment is classed as cell-based, Bacillus cereus. The following applies: C = B. cereus ATCC 11778.
Another experiment relates to E. coli ATCC 25922. In words: NCCLS broth microdilution MIC. It is filed as cell-based. The following applies: D = E. coli ATCC 25922.
Another experiment has as its system C. albicans ATCC 38247. Description: NCCLS broth microdilution MIC (antifungal). The following applies: E = C. albicans ATCC 38247. It is filed as cell-based.
For another experiment, the system named is S. pneumoniae ATCC 49619. In words: NCCLS broth microdilution MIC. The experiment is classed as cell-based, Streptococcus pneumoniae. The following applies: F = S. pneumoniae ATCC 49619.
Another experiment deals with 5′-AAAAAGACAAAAA-3′. It is filed as binding. The following applies: DNA sequence 5′-AAAAAGACAAAAA-3′; pH 7.0, 22° C. Here is the method:
(§1) A number of compounds according to this invention were screened for their ability to bind to three DNA sites, using DNase I footprinting. Generally, the procedure described in Dervan, WO 98/50582 (1998), was followed.
(§2) A plasmid was prepared by hybridizing two sets of 5′-phosphorylated complementary oligonucleotides, one set being
(§3) The target sites and their complements are identified in bold underline.
(§4) The resulting duplexes were ligated to the large pUC19 AvaI/SalI restriction fragment. The 3′-P32 end-labeled EcoRI/PvuII fragment was prepared by digesting the plasmid with EcoRI and PvuII with simultaneous fill-in using Sequenase v. 2.0, [alpha-P32]-deoxyadenosine-5′-triphosphate, and [alpha-P32]-thymidine-5′-triphosphate, and isolating the cloned fragment by nondenaturing gel electrophoresis. Standard methods were used for all DNA manipulations, including A and G sequencing. See, e.g., Maxam et al., Methods Enzymol., 1980, 65, 499-560; Iverson et al., Methods Enzymol., 1987, 15, 7823-7830; and Sambrook et al., 1989, Molecular Cloning, 2nd ed., Cold Spring Harbor Laboratory Press: Cold Spring Harbor, N.Y.
(§5) Quantitative DNase I footprint titration experiments were carried out as described previously (Dervan, WO 98/50582, 1998, “Dervan '582”) with the following changes. All reactions were carried out in a total volume of 400 μL, with polyamide stock solution or water added to 15,000 cpm radiolabeled restriction fragment affording final solution conditions of 10 mM Tris.HCl, 10 mM KCl, 10 mM MgCl2, 5 mM CaCl2, pH 7.0 and 0.01 nM, 0.1 nM, 1.0 nM, 10.0 nM polyamide or no polyamide for reference lanes. The polyamides were allowed to equilibrate at 22° C. for 16 hr. Footprinting reactions were initiated with addition of 10 μL of a DNase I stock solution (at the appropriate concentration to give ˜50% intact DNA) containing 1 mM DTT and allowed to proceed for 7 min at 22° C. The reactions were stopped, ethanol precipitated, resuspended in loading buffer, heat denatured, and placed on ice as described in Dervan '582. The reaction products were separated on a precast 8% polyacrylamide denaturing sequencing Castaway gel with 32 preformed wells from Stratagene in 1× TBE at 2000 V. Gels were dried according to the manufacturer's instructions and exposed to a storage phosphor screen (Molecular Dynamics). Quantitation and data analysis were carried out as described in Dervan '582.

The test system of another experiment is 5′-AAAAAGCAAAAA-3′. It is filed as binding. The following applies: DNA sequence 5′-AAAAAGCAAAAA-3′; pH 7.0, 22° C. Here is the method: as §1, §2, §3, §4, §5
The test system of the next experiment is 5′-AAAAAGTACAAAAA-3′. It is filed as binding. The following applies: DNA sequence 5′-AAAAAGTACAAAAA-3′; pH 7.0, 22° C. On the procedure:
as §1, §2, §3, §4, §5

Structures are written as SMILES. Some results are limits rather than exact numbers.

Consider `CC(C)N(CCNC(=O)CCNC(=O)c1cc(NC(=O)c2cc(NC(=O)CCNC(=O)c3cc(NC(=O)c4cc(NC(=O)c5cc(Br)c(Br)s5)cn4C)cn3C)cn2C)cn1C)C(C)C` [Id-3], for which the “Minimum Inhibitory Concentration (MIC)” value with S. aureus ATCC 29213 is “+++ (+++ = MIC ≦4)”; in the experiment on E. faecalis ATCC 29212, “+++ (+++ = MIC ≦4)”; in the experiment with B. cereus ATCC 11778, “+++ (+++ = MIC ≦4)”; in the experiment on E. coli ATCC 25922, greater than 32 µg/mL; in the experiment with C. albicans ATCC 38247 it was greater than 32 µg/mL; with S. pneumoniae ATCC 49619, “+++ (+++ = MIC ≦4)”. In addition, the “Equilibrium Association Constant (Ka)” value in the experiment with 5′-AAAAAGACAAAAA-3′ worked out at 5e+08 M⁻¹; in the experiment with 5′-AAAAAGCAAAAA-3′, 5e+08 M⁻¹; in the experiment with 5′-AAAAAGTACAAAAA-3′, 5e+09 M⁻¹.
Take `Cn1cc(NC(=O)c2cc(NC(=O)CCNC(=O)c3cc(NC(=O)c4cc(NC(=O)c5cc(Br)c(Br)s5)cn4C)cn3C)cn2C)cc1C(=O)NCCC(=O)NCCCCCCN` [Id-2]: the “Minimum Inhibitory Concentration (MIC)” value with S. aureus ATCC 29213 was “+++ (+++ = MIC ≦4)”; with E. faecalis ATCC 29212 it was “+++ (+++ = MIC ≦4)”; in the experiment with B. cereus ATCC 11778, “+++ (+++ = MIC ≦4)”; with E. coli ATCC 25922, greater than 32 µg/mL; in the experiment with C. albicans ATCC 38247 it was greater than 32 µg/mL; in the experiment with S. pneumoniae ATCC 49619, “+++ (+++ = MIC ≦4)”. Besides, the “Equilibrium Association Constant (Ka)” value came out at 5e+08 M⁻¹ in the experiment with 5′-AAAAAGACAAAAA-3′, 5e+08 M⁻¹ in the experiment with 5′-AAAAAGCAAAAA-3′ and 5e+09 M⁻¹ in the experiment with 5′-AAAAAGTACAAAAA-3′.
Consider `Cn1cc(NC(=O)c2cc(NC(=O)CCNC(=O)c3cc(NC(=O)c4cc(NC(=O)c5ccc(Br)s5)cn4C)cn3C)cn2C)cc1C(=O)NCCC(=O)NCCCCCCN` [Id-21], for which the “Minimum Inhibitory Concentration (MIC)” value is greater than 32 µg/mL in the experiment with S. aureus ATCC 29213; “+++ (+++ = MIC ≦4)” with E. faecalis ATCC 29212; “+++ (+++ = MIC ≦4)” in the experiment on B. cereus ATCC 11778; greater than 32 µg/mL in the experiment on E. coli ATCC 25922; greater than 32 µg/mL in the experiment on C. albicans ATCC 38247; “+++ (+++ = MIC ≦4)” in the experiment with S. pneumoniae ATCC 49619. Also, the “Equilibrium Association Constant (Ka)” value in the experiment on 5′-AAAAAGACAAAAA-3′ was 1e+10 M⁻¹; in the experiment with 5′-AAAAAGCAAAAA-3′, 5e+10 M⁻¹; in the experiment with 5′-AAAAAGTACAAAAA-3′ it was “≧1 × 10^11 M^−1”.
Turning to `CN1CCCN(C(=O)CCNC(=O)c2cc(NC(=O)c3cc(NC(=O)CCNC(=O)c4cc(NC(=O)c5cc(NC(=O)c6ccc(Br)s6)cn5C)cn4C)cn3C)cn2C)CC1` [Id-16], the “Minimum Inhibitory Concentration (MIC)” value in the experiment with S. aureus ATCC 29213 is greater than 32 µg/mL; in the experiment on E. faecalis ATCC 29212, greater than 32 µg/mL; in the experiment on B. cereus ATCC 11778 it was greater than 32 µg/mL; in the experiment with E. coli ATCC 25922, greater than 32 µg/mL; with C. albicans ATCC 38247, greater than 32 µg/mL; with S. pneumoniae ATCC 49619, “+++ (+++ = MIC ≦4)”. The “Equilibrium Association Constant (Ka)” value in the experiment on 5′-AAAAAGACAAAAA-3′ is 5e+10 M⁻¹; in the experiment on 5′-AAAAAGCAAAAA-3′, 5e+10 M⁻¹; with 5′-AAAAAGTACAAAAA-3′, “≧1 × 10^11 M^−1”.
With `CN(C)CCCNC(=O)CCNC(=O)c1cc(NC(=O)c2cc(NC(=O)CCNC(=O)c3cc(NC(=O)c4cc(NC(=O)c5ccc(Br)s5)cn4C)cn3C)cn2C)cn1C` [Id-18], the “Minimum Inhibitory Concentration (MIC)” value with S. aureus ATCC 29213 is greater than 32 µg/mL; in the experiment on E. faecalis ATCC 29212, “++ (++ = MIC between 4 and 12)”; in the experiment with B. cereus ATCC 11778, “+ (+ = MIC from 12 to 32, inclusive)”; in the experiment on E. coli ATCC 25922 it was greater than 32 µg/mL; in the experiment with C. albicans ATCC 38247, greater than 32 µg/mL; in the experiment on S. pneumoniae ATCC 49619, “+++ (+++ = MIC ≦4)”. In addition, the “Equilibrium Association Constant (Ka)” value in the experiment on 5′-AAAAAGACAAAAA-3′, in the experiment on 5′-AAAAAGCAAAAA-3′ and with 5′-AAAAAGTACAAAAA-3′ was “≧1 × 10^11 M^−1” in each case.

The values above are taken from patent US20060287247A1, “Halogen-substituted thienyl compounds” (priority 2001, published 2006).
